Here are results for 1 compound from ChEMBL document CHEMBL5096176, “AAA ATPases as therapeutic targets: Structure, functions, and small-molecule inhibitors” (Eur J Med Chem, 2021).

SMILES strings stand for the structures. pEC50: −log10 of the molar value.

What is called pEC50 is −log10 of the EC50, conventionally taken in molar units.

The subject of data set [1] is Influenza A virus. The experiment in a line: Antiviral activity against Amantadine-resistant Influenza A virus (A/WSN/1933 (H1N1)) infected in MDCK cells over expressing ST6Gal I assessed as inhibition of viral replication by plaque assay. In kind it is functional, organism-based.
The nature of data set [2]: Selectivity index, ratio of CC50 for MDCK cells to EC50 for Amantadine-resistant Influenza A virus (A/Washington/29/2009 (H1N1)) infected in MDCK cells. Conditions: dog, read-out: Ratio CC50/EC50. In kind it is toxicity, cell-based.
Data set [3] can be described thus: Selectivity index, ratio of CC50 for MDCK cells to EC50 for Amantadine-resistant Influenza A virus (A/WSN/1933 (H1N1)) infected in MDCK cells. In kind it is toxicity, cell-based. Conditions: dog, read-out: Ratio CC50/EC50.
For data set [4], the system named is Influenza A virus. Put plainly: Antiviral activity against Amantadine -resistant Influenza A virus (A/Washington/29/2009 (H1N1)) infected in MDCK cells overexpressing ST6Gal I assessed as inhibition of viral replication by plaque assay. The format is functional, organism-based.
Data set [5] relates to Influenza A virus. Put plainly: Antiviral activity against Oseltamivir-resistant Influenza A virus (A/North Carolina/39/2009 (H1N1)) infected in MDCK cells over expressing ST6Gal I assessed as inhibition of viral replication by plaque assay. The format is functional, organism-based.

Take `Cc1cc(OCc2nnc(SC3CCCC3)n2-c2cccnc2)ccc1-c1ccc(S(C)(=O)=O)cc1`: the pEC50 in data set [1], in data set [4] and in data set [5] was 7.52 in each case. Further, the selectivity ratio in data set [2] and in data set [3] was 50 throughout.
